These results are taken from patent publication US20090011400A1, “Substrate switched ammonia lyases and mutases” (The Salk Institute for Biological Studies and The Regents …, priority 2006, published 2009).

In one assay the target is SmPAL. To be noted: substrate L-Phe, read-out: AIP Ki; cited from earlier work.
A further assay deals with PcPAL (Petroselinum crispum, UniProt P24481). The note with it: substrate L-Phe, read-out: AIP Ki; cited from earlier work.
The target of assay [1] is T1, Rhodobacter sphaeroides tyrosine ammonia lyase (RsTAL) variant H89F (His89Phe) (Cereibacter sphaeroides, UniProt Q3IWB0, H89F).
T1 sequence (Q3IWB0 1-523 H89F): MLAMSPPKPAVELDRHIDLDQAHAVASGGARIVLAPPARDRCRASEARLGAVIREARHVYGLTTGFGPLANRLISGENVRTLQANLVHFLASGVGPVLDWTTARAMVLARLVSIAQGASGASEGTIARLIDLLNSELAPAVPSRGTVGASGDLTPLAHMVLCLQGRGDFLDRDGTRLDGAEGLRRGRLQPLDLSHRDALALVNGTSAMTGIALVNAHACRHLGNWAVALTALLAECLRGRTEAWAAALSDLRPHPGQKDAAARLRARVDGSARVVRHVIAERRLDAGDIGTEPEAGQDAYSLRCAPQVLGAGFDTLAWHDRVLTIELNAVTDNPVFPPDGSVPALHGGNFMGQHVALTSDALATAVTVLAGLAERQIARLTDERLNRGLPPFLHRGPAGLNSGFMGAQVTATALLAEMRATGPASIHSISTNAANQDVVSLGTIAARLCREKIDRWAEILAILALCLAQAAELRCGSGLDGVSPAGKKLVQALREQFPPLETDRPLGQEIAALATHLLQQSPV
The assay is described as follows: Inhibition of PAL activity of H89F RsTAL by AIP. The assay is classed as biochemical. On the set-up: mutant proteins were expressed and purified as described for wild type RsTAL; octahistidine (His8), thrombin-cleavable (N, cleaved yes); made in house; host or cells: E. coli BL21(DE3). As to the method: (§1) The inhibition of enzyme activity by AIP was measured with a similar assay system, except that the enzyme was pre-incubated for 7 min in the presence of fixed concentrations of AIP. Inhibition of PAL activity of wild type RsTAL was measured with 15 μg protein, six AIP concentrations between 0 and 20 μM, and initial L-Phe concentrations between 9.6 and 25.6 mM. Inhibition of PAL activity of the H89F mutant was measured with 10 μg protein, five AIP concentrations between 0 and 5 μM, with initial L-Phe concentrations between 0.4 and 1.6 mM. Duplicate sets of enzyme assays were performed and a Dixon plot was used for the estimation of the AIP inhibition constant, Ki. AIP was a gift from Dr. Jerzy Zon, Wroclaw University, Poland.

The next assay concerns the target T2, H89F RsTAL (Cereibacter sphaeroides, UniProt Q3IWB0, H89F).
T2 construct: mutant proteins were expressed and purified as described for wild type RsTAL; His8 (octahistidine), thrombin-cleavable (N, cleaved yes); made in house; host or cells: E. coli BL21(DE3)
T2 sequence (Q3IWB0 1-523 H89F): T1 sequence (Q3IWB0 1-523 H89F)
Description: Inhibition of PAL activity by AIP, H89F RsTAL. Format: biochemical, Rhodobacter sphaeroides. As to the method:
as §1

Another assay addresses T3, wild type RsTAL (Cereibacter sphaeroides, UniProt Q3IWB0).
T3 construct: only residues 1 to 7 and the C-terminal residue 523 of each of the eight RsTAL monomers are poorly ordered; His8 (octahistidine), thrombin-cleavable (N, cleaved yes); made in house; host or cells: E. coli BL21(DE3)
T3 sequence (Q3IWB0 1-523): T1 sequence (Q3IWB0 1-523 H89F) with F89H
Description: Inhibition of enzyme activity by AIP, wild type RsTAL. The assay is classed as biochemical, Rhodobacter sphaeroides. As to the method: as §1

In another assay the target is T4, RsTAL (Cereibacter sphaeroides, UniProt Q3IWB0).
T4 construct: His8 (octahistidine), thrombin-cleavable (N, cleaved yes); made in house; host or cells: E. coli BL21(DE3)
T4 sequence (Q3IWB0 1-523): T1 sequence (Q3IWB0 1-523 H89F) with F89H
Description: Crystal soaking experiments of RsTAL with ligands. Format: binding, Rhodobacter sphaeroides. The note with it: wild type RsTAL crystals soaked with ligand. As to the method:
Monoclinic crystals of RsTAL (space group […]) were grown from a 1:1 mixture of protein solution (20 mg/ml in 12.5 mM Tris-HCl, pH 7.5, 50 mM NaCl) and a reservoir solution (0.1 M MOPSO—Na^+, pH 7.0, 7% (w/v) polyethylene glycol 8000, 0.3 M ammonium acetate, 2 mM dithiothreitol, 35 mM cyclohexylbutanoyl-N-hydroxyethylglucamide) using vapor diffusion against reservoir solutions at 4° C. Crystal growth typically occurred over a period of one to three weeks and was expedited through microseeding. […] Crystals of RsTAL in complex with small molecule ligands were produced by soaking crystals for 24-48 hrs in reservoir solutions supplemented with 10-20 mM coumaric acid, caffeic acid, cinnamic acid or AIP.

SMILES strings stand for the structures. Residue numbers refer to the chain shown, from its start. pKi: −log10 of the molar value.

As usually defined, the pKi is −log10 of the Ki, conventionally taken in molar units. With `NC1(P(=O)(O)O)Cc2ccccc2C1` [AIP, 2-aminoindan-2-phosphonate], the pKi on SmPAL is 5.74; on PcPAL it was 7.60; in assay [1], 6.22; at H89F RsTAL (H89F RsTAL, substrate L-Phe, Dixon plot), 6.22; at wild type RsTAL (wt RsTAL, substrate L-Phe, Dixon plot), 4.79. Moreover, the “Ki lower than for wild type RsTAL” value on H89F RsTAL (H89F mutant with L-Phe versus wild type RsTAL) is 27 fold. Further, the “inhibition of RsTAL activity by AIP (in words)” value on wild type RsTAL (wild type RsTAL) is “weak inhibition”. On wild type RsTAL (wild type RsTAL, substrate L-Tyr), the “effect of AIP on activity with L-Tyr (in words)” value is listed as “unaffected”. Moreover, the “binding observed in RsTAL crystals (in words)” value on RsTAL was “no significant binding”.
